Consider 24 compounds from ChEMBL document CHEMBL1667844, “Synthesis, structure-activity relationships and preliminary antitumor evaluation of benzothiazole-2-thiol derivatives as novel apoptosis inducers” (Bioorg Med Chem Lett, 2011).

One test relates to MCF7. The experiment in a line: Cytotoxicity against human MCF7 cells after 48 hrs by MTT assay. Format: functional, cell-based. The following applies: MCF7, 48 h. For orientation: Tetrazolium assays rely on reduction of a dye to a coloured formazan, in cell work by metabolically active cells.
Test [1] relates to HepG2. Kind of test: Cytotoxicity against human HepG2 cells after 48 hrs by MTT assay. The following applies: HepG2, 48 h. Format: functional, cell-based.
A further test has as its system SW480. Kind of test: Cytotoxicity against human SW480 cells after 48 hrs by MTT assay. Format: functional, cell-based. The following applies: SW480, 48 h.
The next test concerns BXPC-3. Kind of test: Cytotoxicity against human BxPC3 cells after 48 hrs by MTT assay. To be noted: BXPC-3, 48 h. The class given is functional, cell-based.
For another test, the system named is HeLa. The experiment in a line: Cytotoxicity against human HeLa cells after 48 hrs by MTT assay. The class given is functional, cell-based.
The subject of a further test is MDA-MB-468. The experiment in a line: Cytotoxicity against human MDA-MB-468 cells after 48 hrs by MTT assay. Format: functional, cell-based. The following applies: MDA-MB-468, 48 h.
A further test relates to HCT-116. Kind of test: Cytotoxicity against human HCT116 cells after 48 hrs by MTT assay. Format: functional, cell-based. The following applies: HCT-116, 48 h.
The subject of a further test is A549. The experiment in a line: Cytotoxicity against human A549 cells after 48 hrs by MTT assay. To be noted: A549, 48 h. The class given is functional, cell-based.
Another test deals with PC-3. The experiment in a line: Cytotoxicity against human PC3 cells after 48 hrs by MTT assay. Format: functional, cell-based. The following applies: PC-3, 48 h.
Another test relates to SW-620. The experiment in a line: Cytotoxicity against human SW620 cells after 48 hrs by MTT assay. To be noted: SW-620, 48 h. Format: functional, cell-based.
The test system of the next test is A-431. Kind of test: Cytotoxicity against human A431 cells after 48 hrs by MTT assay. The following applies: A-431, 48 h. Format: functional, cell-based.
Another test relates to A-375. Kind of test: Cytotoxicity against human A375 cells after 48 hrs by MTT assay. To be noted: A-375, 48 h. The class given is functional, cell-based.
The test system of a further test is SK-BR-3. The experiment in a line: Cytotoxicity against human SK-BR-3 cells after 48 hrs by MTT assay. The class given is functional, cell-based. The following applies: SK-BR-3, 48 h.
For the next test, the system named is SK-OV-3. Kind of test: Cytotoxicity against human SKOV3 cells after 48 hrs by MTT assay. The class given is functional, cell-based. To be noted: SK-OV-3, 48 h.
The test system of test [2] is HepG2. Kind of test: Induction of apoptosis in human HepG2 cells assessed as morphological changes after 24 hrs using propidium iodide staining by fluorescence microscopic analysis. Format: functional, cell-based.
Test [3] has as its system HepG2. The experiment in a line: Induction of apoptosis in human HepG2 cells assessed as DNA content at sub-G1 phase at 0.6 uM after 24 hrs using propidium iodide staining by flow cytometry (reference value: 4.3 %). The class given is functional. A general note: A flow cytometer gives signals particle by particle.
The test system of test [4] is HepG2. Kind of test: Induction of apoptosis in human HepG2 cells assessed as DNA content at sub-G1 phase after 24 hrs using propidium iodide staining by flow cytometry. Format: functional, cell-based.
For test [5], the system named is HepG2. Kind of test: Induction of apoptosis in human HepG2 cells assessed as DNA content at sub-G1 phase at 0.3 uM after 24 hrs using propidium iodide staining by flow cytometry (reference value: 4.3 %). Format: functional.
Test [6] has as its system HepG2. The experiment in a line: Induction of apoptosis in human HepG2 cells assessed as DNA content at sub-G1 phase at 1.2 uM after 24 hrs using propidium iodide staining by flow cytometry (reference value: 4.3 %). The class given is functional.

Usually IC50 stands for the concentration needed to halve the response being measured. Higher therefore signals a need for much substance.

In the case of `O=C(CSc1nc2ccc(NC(=O)c3ccccc3)cc2s1)NCc1ccc(Cl)cc1`, the IC50 turned out to be 33.7 µM in the test with MCF7 and 30.1 µM in the test on HepG2 [1].
In the same order, the values of `CC(=O)Nc1ccc2nc(SCC(=O)NCc3ccc(Cl)cc3)sc2c1` are 10.2 µM and 6.7 µM.
The corresponding values for `O=C(CSc1nc2ccc(NC(=O)c3ccc(Cl)cc3)cc2s1)NCc1ccc(Cl)cc1` are 29.3 µM and 17.8 µM.
On to `O=C(CSc1nc2ccc(NC(=O)c3ccc([N+](=O)[O-])cc3)cc2s1)NCc1ccccc1`, for which the IC50 with MCF7 and in the test on HepG2 [1] was greater than 100 µM in each case.
As for `CNC(=O)CSc1nc2ccc(NC(=O)c3ccccc3OC)cc2s1`, the IC50 was determined as 23.4 µM in the test on MCF7 and 18.5 µM in the test on HepG2 [1].
On to `O=C(CSc1nc2ccc(NC(=O)c3ccccc3)cc2s1)NCc1ccccc1`, for which the IC50 in the test with MCF7 is 35.6 µM; with HepG2 [1], 34.2 µM.
As to `COc1ccc(CNC(=O)CSc2nc3ccc(NC(=O)c4ccc(Cl)cc4)cc3s2)cc1`, the IC50 in the test with MCF7 came out at 19.2 µM; in the test with HepG2 [1], 7.4 µM.
On to `CNC(=O)CSc1nc2ccc(NC(=O)c3ccccc3)cc2s1`, for which the results for the IC50 in the test on MCF7 and in the test on HepG2 [1] were 34.4 µM and 26.5 µM, respectively.
As to `COc1ccc(CNC(=O)CSc2nc3ccc(NC(=O)CCl)cc3s2)cc1`, the values for the IC50 in the test with MCF7 and in the test with HepG2 [1] were 5.1 µM and 2 µM, respectively.
In the same order, the values of `CNC(=O)CSc1nc2ccc(NC(=O)CCl)cc2s1` are 5 µM and 1.9 µM.
In the case of `COc1ccc(CNC(=O)CSc2nc3ccc(NC(=O)c4ccccc4OC)cc3s2)cc1`, the IC50 in the test with MCF7 is 9.3 µM; in the test with HepG2 [1] it was 2.1 µM.
In the same order, the values of `COc1ccc(CNC(=O)CSc2nc3ccc(NC(C)=O)cc3s2)cc1` are 20.5 µM and 11.2 µM.
In the same order, the values of `COc1ccc(CNC(=O)CSc2nc3ccc(NC(=O)c4ccccc4)cc3s2)cc1` are 21.2 µM and 12.7 µM.
The corresponding values for `CC(=O)Nc1ccc2nc(SCC(=O)NCc3ccccc3)sc2c1` are 17.6 µM and 9.2 µM.
As for `O=C(CSc1nc2ccc(NC(=O)CCl)cc2s1)NCc1ccccc1`, the IC50 was determined as 5.2 µM with SW480; 6.6 µM in the test on BXPC-3; 4.9 µM with HeLa; 4.1 µM in the test with MDA-MB-468; 1.3 µM with HCT-116; 4 µM with A549. Besides, the IC50 was determined as 6.1 µM in the test on PC-3; 1.2 µM in the test on SW-620; 4.4 µM in the test on A-431; 1.8 µM with A-375; 8.8 µM in the test on SK-BR-3; 4.2 µM in the test with MCF7. The IC50 in the test on SK-OV-3 turned out to be 4.8 µM; in the test on HepG2 [1], 1.1 µM.
Take `COc1ccccc1C(=O)Nc1ccc2nc(SCC(=O)NCc3ccc(Cl)cc3)sc2c1`: the IC50 was 5.4 µM in the test on SW480; 4.4 µM in the test with BXPC-3; 4.2 µM in the test with HeLa; 2.3 µM in the test with MDA-MB-468; 1.5 µM in the test on HCT-116; 2 µM in the test on A549. Also, the half-inhibitory concentration (IC50) was determined as 4.6 µM with PC-3; 4.2 µM with SW-620; 1.1 µM in the test with A-431; 2.2 µM in the test with A-375; 1.2 µM in the test on SK-BR-3; 1.1 µM in the test with MCF7. The IC50 is 6 µM in the test on SK-OV-3 and 0.6 µM with HepG2 [1]. Moreover, the Activity entry in the test with HepG2 [2] was “Dose-dependent effect”; in the test on HepG2 [3], 35.9%; in the test on HepG2 [4] it was “Dose-dependent effect”; in the test with HepG2 [5] it was 19.2%; with HepG2 [6], 55.4%.
Turning to `CNC(=O)CSc1nc2ccc(NC(=O)c3ccc(Cl)cc3)cc2s1`, the IC50 with MCF7 was found to be 29.4 µM; in the test with HepG2 [1], 15.3 µM.
The corresponding values for `O=C(CSc1nc2ccc(NC(=O)c3ccc(Cl)cc3)cc2s1)NCc1ccccc1` are 25.9 µM and 25.4 µM.
In the same order, the values of `COc1ccccc1C(=O)Nc1ccc2nc(SCC(=O)NCc3ccccc3)sc2c1` are 17.2 µM and 8 µM.
As to `COc1ccc(CNC(=O)CSc2nc3ccc(NC(=O)c4ccc([N+](=O)[O-])cc4)cc3s2)cc1`, the IC50 with MCF7 and in the test with HepG2 [1] was greater than 100 µM each time.
Turning to `CNC(=O)CSc1nc2ccc(NC(=O)c3ccc([N+](=O)[O-])cc3)cc2s1`, the IC50 in the test on MCF7 and in the test with HepG2 [1] was greater than 100 µM each time.
For `O=C(CSc1nc2ccc(NC(=O)CCl)cc2s1)NCc1ccc(Cl)cc1`, the figures for the IC50 in the test on MCF7 and with HepG2 [1] were 4.9 µM and 1.8 µM, respectively.
The corresponding values for `O=C(CSc1nc2ccc(NC(=O)c3ccc([N+](=O)[O-])cc3)cc2s1)NCc1ccc(Cl)cc1` are greater than 100 µM and greater than 100 µM.
The corresponding values for `CNC(=O)CSc1nc2ccc(NC(C)=O)cc2s1` are greater than 100 µM and greater than 100 µM.
